Reference: US6291199A, “Human phosphodiesterase type IVC, and its production and use” (Celltech Therapeutics Limited, priority 1994, dated 2001)
Read-outs that look alike come from different tables or passages of the source.

How the values were obtained:
[1] = test system: PDE IV D; settings: read-out: IC50 for rolipram inhibition; literature; cited from earlier work
[2] = test system: PDE IVA; settings: in situ, CHO + beta 2 adrenergic receptor + PDE IVA, 10 uM inhibitor
Method: Transfected cells were harvested with non-enzymatic cell dissociation reagent (Sigma) washed three times and re-suspended in Dulbecco's phosphate buffered saline containing 0.1% BSA and 0.1% glucose (DPBS+). The cells were incubated with 10 uM inhibitor (or solvent control, 0.1% DMSO) in DPBS+for 10 min at 37° C. The cell suspension was stimulated with isoproterenol (0.001-1 uM) for 2 min. The cells were pelleted at 12000 g and resuspended in 400 uL of boiling assay buffer 1s (DuPont cAMP measurement kit). The samples were heated in a boiling water bath for 10 min and frozen before being assayed for cAMP using a commercial cAMP radioimmunoassay (DuPont).

[3] = test system: PDE IVA; assay: Inhibition of recombinant human PDE IVA (cAMP hydrolysis); assay type: biochemical; settings: enzyme from CHO cell lysates
[4] = test system: PDE IV A; settings: read-out: IC50 for rolipram inhibition; literature; cited from earlier work
[5] = test system: PDE IV B; settings: read-out: IC50 for rolipram inhibition; literature; cited from earlier work
[6] = test system: recombinant PDE IV; settings: Torphy et al. 1992; cited from earlier work
[7] = test system: SKNSH cells; assay: RT.PCR of PDE IV isoform mRNAs in Bt2 cAMP stimulated SKNSH cells; assay type: cell-based, human; settings: SKN.SH cells
Method: (§1) To identify a source of gene C mRNA, a number of cell lines were assayed for isoform mRNAs by reverse transcription coupled to polymerase chain reaction (RT.PCR). Total RNA was prepared using RNAzol (Biogenesis) and polyA+ mRNA selected by affinity chromatography using oligodT cellulose. 50 ng of first strand cDNA prepared by reverse transcriptase was amplified with the following pairs of gene specific primers for 40 cycles using the conditions, 94° C. 1 min, 55° C. 1 min, 72° C. 3 min.
(§2) The results of RT.PCR using the human gene primers to detect isoform mRNAs in both human tissue culture cells and rat tissues confirms that PDE IV mRNAs are widely distributed though the apparent levels of each isoform mRNA varies. Gene C mRNA appears to be more abundant than A,B, or D in cells derived from dorsal root ganglia and testes in rat. This latter result is consistent with data reported previously by Swinnen et al. (1989) ibid.

[8] = test system: HL60 cells; assay: RT.PCR of PDE IV isoform mRNAs in Bt2 cAMP stimulated HL60 cells; assay type: cell-based, human; settings: HL-60 cells
Method: as §1, §2

[9] = test system: binding sites in the rodent forebrain tissue; settings: Schmiechen et al.; Kaulen et al. 1989; cited from earlier work
[10] = test system: T lymphocytes; settings: relative to other enantiomer; Sommer et al. 1995; cited from earlier work
[11] = test system: PDE IVA; assay: Inhibition of recombinant human PDE IVA (cAMP hydrolysis); assay type: biochemical
Method: Isolation of cDNA Clones for Gene A
A partial cDNA for gene A was isolated by PCR from a cDNA library prepared from PMA stimulated U937 cells using published sequence information (Livi G. et al. (1990) ibid)). Subsequently a conserved region probe form this cDNA was used to isolate a full length cDNA clone from a human frontal cortex cDNA library by hybridisation and washing at moderate stringency (final wash 2×SSC, 0.5% SDS at 60° C.).
The full length gene for PDE IVA was introduced into pEE7 and pYES vectors for expression in COS and yeast cells respectively.
Recombinant PDE IV enzymes were produced in COS cells by transient expression as described by Whittle N. et al. [(1987) Prot. Engineering 1 499-505]. Briefly […] cells/ml were transfected with 10 ug of plasmid. After 3 days in culture cells were washed with PBS and lysed by brief sonciation in 50 mM TES buffer, pH 7.6, (N. tris[hydroxymethyl]methyl) 2-aminoethane sulphonic acid containing proteases inhibitors (50 uM leupeptin, 1 uM pepstatin, 1 um phenylmethylsulphonylfluoride, 2 uM benzamidine). The cell homogenate was centrifuged ×12000 g for 10 min. and assayed for PDE IV activity.
For expression of PDE IVA and C in yeast cells, the two genes were inserted into the vector pYES (InVitrogen) as either Hind3/Xba1 (gene A) or EcoR1 (gene C) fragments isolated from pDEFC17 and pDEU7 vectors respectively. The resulting plasmids were designated as pDEFC 32 and pDEU8 respectively. Yeast cells (B7542: alpha, ura-3,trp1+, Leu2delta, pep4: His3, prBdelta 1.6R can 1, gal) were transformed with pDEFC32 and pDEU8 vectors using the lithium acetate method (Ito H. et al. (1983) J.Bacteriol. 51 163-168). Ura3 positive prototrophs were isolated and grown at 30° C. to an OD600 =1.0 in minimal media containing 2% glucose and […] leucine. Cells were recovered by centrifugation, washed and resuspended at OD600 =0.5 in minimal media containing 2% galactose to induce PDE IV expression. At an OD600 =1.0 cells were harvested, washed and broken in TES buffer plus proteases (see above) by milling with glass beads (425-600 um) at 4° C. The homogenate was clarified by centrifugation at 100,000 g for 30 mins at 4° C.
Enzyme reactions were carried out at pH 7.6 in 50 mM TES buffer containing 10 mM MgCl2, 3',5' cAMP (0.1 uM ^3 H-labelled 0.74-1.1 TBq/mmol) 5'AMP (2.5 uM ^14 C, 1.85-2.2 GBq/mmol) for 30 min at 30° C. Sufficient enzyme preparation was added to hydrolyse not more than 20% of substrate under these conditions. […] Reactions were stopped by rapid inactivation of enzyme by addition of trifluoroacetic acid to a final concentration of 1%. Substrate and product of reaction were separated as described by Smith et al. [(1993) Analyt. Biochem. 214 355-357] and the [^3 H] 5'AMP product analysed by scintillation counting. Correction for losses of [^3 H] […] during separation was made by reference to [^14 C] 5'AMP included in the reaction mixture.

[12] = test system: beta 2 adrenergic receptor; settings: CHO cells expressing human beta2 adrenergic receptor; isoproterenol 0.001-1 uM, 2 min
From the text: Isolation of Human Beta 2 Adrenergic Receptor Gene.
The human beta 2 adrenergic receptor gene (Kobilka B. et al. (1987) J.Biol. Chem. 262 7321-7327) was isolated from HL-60 cells genomic DNA by PCR using the following primers: […]
The plasmid was named pRO1 44.

[13] = test system: asthma; settings: in vivo; cited from earlier work

## COc1ccc(C2CNC(=O)C2)cc1OC1CCCC1 (racemic) [Rolipram]
[1]
  IC50: 200 to 500 nM
[2]
  reversal by rolipram of the prevention of cAMP accumulation, in words: reversed
[3]
  IC50: 287 nM
[4]
  IC50: 200 to 500 nM
[5]
  IC50: 200 to 500 nM
[6]
  high affinity binding of rolipram, in words: stereoselectivity for high affinity binding

## CCCC(=O)Nc1ncnc2c1ncn2[C@@H]1O[C@@H]2COP(=O)(O)O[C@H]2[C@H]1OC(=O)CCC [Bt2 CAMP]
[7]
  levels of PDE IV isoform mRNAs, in words: levels of C and D but not A and B are elevated
[8]
  levels of PDE IV isoform mRNAs, in words: levels of C and D but not A and B are elevated

## COc1ccc([C@@H]2CNC(=O)C2)cc1OC1CCCC1 [R-rolipram]
[9]
  affinity for binding sites over S-rolipram, in words: higher affinity
[10]
  effectiveness in suppression of TNF release: approximately 50 times
[3]
  IC50: 251 nM
[11]; enzyme from COS cells, read-out: IC50, PDE IVA
  IC50: 292 nM
[11]; enzyme from yeast, read-out: IC50, Yeast, A
  IC50: 298 nM

## CC(C)NCC(O)c1ccc(O)c(O)c1 (stereo not drawn) [isopreterenol]
[12]
  cAMP levels, in words: dose-dependent increase in cAMP levels

## Cn1c(=O)c2[nH]cnc2n(C)c1=O [theophylline]
[13]
  effect in asthma, in words: has been shown to have a therapeutic effect
